≈ marks a conversion by molar mass, not a printed value.
Columns and labels:
[1] = target: β-lactamase, Escherichia freundii GN 346 (Citrobacter freundii, UniProt Q46041); test: Resistant activity against β-lactamase, iodometric assay; type: biochemical; settings: control Cephalorizine = 100
Description: (§1) (4) Resistant activity of each cephalosporin compound against β-lactamase, Proteus vulgaris GN 76 and Escherichia freundii GN 346:
(§2) The resistant activity of each cephalosporin compound against β-lactamase was measured in the manner described below.
(§3) β-lactamase was prepared from Proteus vulgaris GN 76 and Escherichia freundii GN 346. 10 ml of an overnight culture in Heart Infusion broth was diluted with 100 ml of a medium containing 2 g of yeast extract, 10 g of polypeptone, 2 g of glucose, 7 g of disodium hydrogen phosphate, 2 g of potassium dihydrogen phosphate, 1.2 g of ammonium sulfate and 0.4 g of magnesium sulfate, per liter, and incubated with shaking at 37° C. After incubation of 2 hrs, Penicillin G (50 μg/ml) was added as the inducer, and further incubated for 2 hrs. The resulting cells were collected by centrifugation (5,000 r.p.m.×10 min.) and washed two times with 0.1 M phosphate buffer (pH 7.0). Subsequently, the cells were subjected to sonication (20 KHz, 5 min.) and then centrifuged at 15,000 r.p.m. for 60 min. By using the supernatant of enzyme fluid, the stability of each compound against β-lactamase was determined by the iodometric assay method. Each numeral shown in Table 7-2 is a relative activity value calculated by assuming as 100 the activity of the control Cephalorizine.

[2] = target: T1, β-lactamase, Proteus vulgaris GN 76 (Proteus vulgaris, UniProt P52664); test: as above; type: biochemical; settings: control Cephalorizine = 100
T1 construct: By using the supernatant of enzyme fluid; endogenous in cells; host or cells: Proteus vulgaris GN 76 (penicillin G-induced cells, sonicated, 15,000 r.p.m. supernatant)
T1 sequence (P52664 30-300): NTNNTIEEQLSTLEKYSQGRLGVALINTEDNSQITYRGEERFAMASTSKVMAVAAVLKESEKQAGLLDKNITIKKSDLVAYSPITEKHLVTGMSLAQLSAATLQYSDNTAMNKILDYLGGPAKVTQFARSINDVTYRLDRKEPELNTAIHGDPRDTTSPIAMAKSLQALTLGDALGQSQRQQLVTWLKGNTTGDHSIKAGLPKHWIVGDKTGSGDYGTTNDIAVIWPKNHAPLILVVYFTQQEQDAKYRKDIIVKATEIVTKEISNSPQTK
Description: as §1, §2, §3

[3] = system: Pseudomonas aeruginosa I.F.O.; test: MIC, plate method, standard strains; type: cell-based; settings: Table 4, standard strain; unit assumed
Description: (§4) The minimum inhibitory concentration (MIC) was determined by the plate method disclosed in "Chemotherapy" (Japan), Vol. 16, (1968), pages 98-99. The culture medium used was a Heart infusion agar (pH 7.4). The number of the cells per plate used in the inoculum was 10^4 (10^6 cells/ml).

Klebsiella pneumoniae [4] = test: MIC, plate method, standard strains; type: cell-based; settings: Table 4, standard strain; unit assumed
Description: as §4

Escherichia coli NIHJ = test: MIC, plate method, standard strains; type: cell-based; settings: Table 4, standard strain; unit assumed
Description: as §4

Proteus vulgaris 3027 = test: MIC, plate method, standard strains; type: cell-based; settings: Table 4, standard strain; unit assumed
Description: as §4

[5] = system: Staphylococcus aureus 209p; test: MIC, plate method, standard strains; type: cell-based; settings: Table 4, standard strain; unit assumed
Description: as §4

Pseudomonas aeruginosa = test: MIC against clinical isolates; type: cell-based; settings: unit assumed
Escherichia coli = test: MIC against clinical isolates; type: cell-based; settings: Table 6-2, clinical isolate; unit assumed
Staphylococcus aureus = test: MIC against clinical isolates; type: cell-based; settings: Table 6-1, clinical isolate; unit assumed
Klebsiella pneumoniae [6] = test: MIC against clinical isolates; type: cell-based; settings: Table 6-4, clinical isolate; unit assumed

β-lactamase, Escherichia freundii GN 346, sequence (Q46041 entry or part of it): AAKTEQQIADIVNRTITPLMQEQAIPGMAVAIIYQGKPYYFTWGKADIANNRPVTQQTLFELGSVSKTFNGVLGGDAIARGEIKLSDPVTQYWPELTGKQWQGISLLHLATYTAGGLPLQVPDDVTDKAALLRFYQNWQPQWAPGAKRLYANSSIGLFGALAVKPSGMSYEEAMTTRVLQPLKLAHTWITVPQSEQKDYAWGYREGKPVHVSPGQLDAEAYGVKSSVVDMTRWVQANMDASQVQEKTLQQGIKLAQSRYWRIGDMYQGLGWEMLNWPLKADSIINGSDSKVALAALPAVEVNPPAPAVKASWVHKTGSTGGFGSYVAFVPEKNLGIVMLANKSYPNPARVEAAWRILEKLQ

SMILES | Relative activity (%) against β-lactamase, E. freundii GN 346 [1] [%] | Relative activity (%) against β-lactamase, Pr. vulgaris GN 76 [2] [%] | MIC Pseudomonas aeruginosa GN4 (Pseudomonas aeruginosa; Table 6-3, clinical isolate) [µg/mL] | MIC Pseudomonas aeruginosa GN 82 (Pseudomonas aeruginosa; Table 6-3, clinical isolate) [µg/mL] | MIC Pseudomonas aeruginosa GN 163 (Pseudomonas aeruginosa; Table 6-3, clinical isolate) [µg/mL] | MIC Pseudomonas aeruginosa GN 221 (Pseudomonas aeruginosa; Table 6-3, clinical isolate) [µg/mL] | MIC Pseudomonas aeruginosa GN 376 (Pseudomonas aeruginosa; Table 6-3, clinical isolate) [µg/mL] | MIC Pseudomonas aeruginosa GN 1035 (Pseudomonas aeruginosa; Table 6-3, clinical isolate) [µg/mL] | MIC Pseudomonas aeruginosa GN 1091 (Pseudomonas aeruginosa; Table 6-3, clinical isolate) [µg/mL] | MIC Pseudomonas aeruginosa GN 2565 (Pseudomonas aeruginosa; Table 6-3, clinical isolate) [µg/mL] | MIC Pseudomonas aeruginosa GN 2987 (Pseudomonas aeruginosa; Table 6-3, clinical isolate) [µg/mL] | MIC Pseudomonas aeruginosa S-2 (Pseudomonas aeruginosa; Table 6-4, clinical isolate) [µg/mL] | MIC Pseudomonas aeruginosa S-3 (Pseudomonas aeruginosa; Table 6-4, clinical isolate) [µg/mL] | MIC Pseudomonas aeruginosa S-4 (Pseudomonas aeruginosa; Table 6-4, clinical isolate) [µg/mL] | other results
CCN1CCN(C(=O)NC(C(=O)NC2C(=O)N3C(C(=O)O)=C(COC(N)=O)CSC23)c2ccc(O)cc2)C(=O)C1=O (single isomer, unassigned) [Compound No. 84] | 1 | 10 |  |  |  |  |  |  |  |  |  |  |  |  | MIC Pseudomonas aeruginosa I.F.O. [3]: 25 µg/mL (≈ 42.3 µM); MIC Klebsiella pneumoniae (Klebsiella pneumoniae [4]): < 1.57 µg/mL; MIC Escherichia coli NIHJ (Escherichia coli NIHJ): < 1.57 µg/mL; MIC Proteus vulgaris 3027 (Proteus vulgaris 3027): < 1.57 µg/mL; MIC Staphylococcus aureus 209p [5]: < 1.57 µg/mL
O=C(Cc1cccs1)N[C@@H]1C(=O)N2C(C(=O)[O-])=C(C[n+]3ccccc3)CS[C@H]12 [Cephalorizine, reference compound] | 100 | 100 | > 200 | > 200 | > 200 | > 200 | > 200 | > 200 | > 200 | > 200 | > 200 | > 200 | > 200 | > 200 | 
CCN1CCN(C(=O)NC(C(=O)NC2C(=O)N3C(C(=O)O)=C(CSc4nnnn4C)CSC23)c2ccccc2)C(=O)C1=O (centres unmarked) [Compound No. 69] | 0.1 | 4 | 25 (≈ 39.7 µM) |  |  |  |  |  |  |  |  |  |  |  | 
CC(=O)OCC1=C(C(=O)O)N2C(=O)[C@@H](NC(=O)[C@H](N)c3ccccc3)[C@H]2SC1 [Sodium Cephaloglycin, reference compound] | 0.3 | 1300 | > 200 |  |  |  |  |  |  |  |  |  |  | > 200 | 
CC(=O)OCC1=C(C(=O)O)N2C(=O)[C@@H](NC(=O)Cc3cccs3)[C@H]2SC1 [Sodium Cephalothin, reference compound] | 17 | 105 | > 200 | > 200 | > 200 | > 200 | > 200 | > 200 | > 200 | > 200 | > 200 | > 200 | > 200 | > 200 | MIC Pseudomonas aeruginosa GN (Pseudomonas aeruginosa; Table 6-3, clinical isolate, strain number not given): > 200 µg/mL; MIC Pseudomonas aeruginosa S-1 (Pseudomonas aeruginosa; Table 6-4, clinical isolate): > 200 µg/mL; MIC Escherichia coli GN 3435 (Escherichia coli): 6.25 µg/mL; MIC Escherichia coli GN 3452 (Escherichia coli): 12.5 µg/mL; MIC Escherichia coli GN 3481 (Escherichia coli): 12.5 µg/mL; MIC Escherichia coli K-1 (Escherichia coli): 6.25 µg/mL; MIC Escherichia coli K-2 (Escherichia coli): 6.25 µg/mL; MIC Staphylococcus aureus F-1 (Staphylococcus aureus): < 0.4 µg/mL; MIC Staphylococcus aureus F-2 (Staphylococcus aureus): < 0.4 µg/mL; MIC Staphylococcus aureus F-3 (Staphylococcus aureus): < 0.4 µg/mL; MIC Staphylococcus aureus F-4 (Staphylococcus aureus): < 0.4 µg/mL; MIC Staphylococcus aureus F-5 (Staphylococcus aureus): 1.56 µg/mL; MIC Staphylococcus aureus MS 8588 (Staphylococcus aureus): < 0.4 µg/mL; MIC Staphylococcus aureus MS 8596 (Staphylococcus aureus): < 0.4 µg/mL; MIC Staphylococcus aureus MS 8619 (Staphylococcus aureus): < 0.4 µg/mL; MIC Staphylococcus aureus MS 8684 (Staphylococcus aureus): < 0.4 µg/mL; MIC Staphylococcus aureus MS 8713 (Staphylococcus aureus): < 0.4 µg/mL; MIC Klebsiella pneumoniae GN 917 (Klebsiella pneumoniae [6]): 3.13 µg/mL; MIC Klebsiella pneumoniae GN 4081 (Klebsiella pneumoniae [6]): 12.5 µg/mL; MIC Klebsiella pneumoniae GN 4117 (Klebsiella pneumoniae [6]): 6.25 µg/mL
